Test results published in patent US9809574B2, “Isoindoline or isoquinoline compounds, a process for their preparation and pharmaceutical compositions containing them” (LES LABORATOIRES SERVIER, priority 2013, dated 2017).
Where a name gives a salt, the structure may show the parent alone.

Columns and labels:
Bcl-2 protein = Bcl-2 protein (histag-Bcl-2, UniProtKB P10415) (Homo sapiens (Human), UniProt P10415); assay: Inhibition of Bcl-2 by the fluorescence polarisation technique; assay type: binding; settings: fluorescence polarisation test; incubation for 2 hours; read-out: IC50 (nM) Bcl-2 FP
Sequence of Bcl-2 protein (P10415 whole entry): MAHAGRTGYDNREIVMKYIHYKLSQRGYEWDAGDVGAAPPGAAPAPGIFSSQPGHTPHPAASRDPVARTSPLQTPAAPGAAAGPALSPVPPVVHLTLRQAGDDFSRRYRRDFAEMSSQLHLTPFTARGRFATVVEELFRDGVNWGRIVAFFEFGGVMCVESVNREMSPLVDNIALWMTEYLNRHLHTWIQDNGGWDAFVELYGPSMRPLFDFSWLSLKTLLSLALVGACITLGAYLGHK
Text: For partial inhibitors, the percentage fluorescence polarisation inhibition for a given concentration of the test compound is indicated.

[1] = test system: RS4; 11 leukaemia cell line; assay: In vitro cytotoxicity, Microculture Tetrazolium Assay (MTT); assay type: cell-based; settings: Homo sapiens, 11 cells exposed for 48 hours
Experimental: The cytotoxicity studies were carried out on the RS4; 11 leukaemia cell line and on H146 small Cell Lung Carcinoma cell line. The cells are distributed onto microplates and exposed to the test compounds for 48 hours. The cell viability is then quantified by a colorimetric assay, the Microculture Tetrazolium Assay (Cancer Res., 1987, 47, 939-942).

| Compound | IC50 (Bcl-2 protein) [nM] | IC50 [1] [nM] |
| --- | --- | --- |
| Cc1c(C(=O)N(C)c2ccc(O)cc2)cc(-c2cc3c(cc2C(=O)N2Cc4ccccc4C[C@H]2CN2CCOCC2)CN(C(=O)COc2ccccc2)C3)n1C [Example 159, N-(4-Hydroxyphenyl)-N,1,2-trimethyl-5-{6-[(3S)-3-(morpholin-4-ylmethyl)-1,2,3,4-tetrahydroisoquinoline-2-carbonyl]-2-(2-phenoxyacetyl)-2,3-dihydro-1H-isoindol-5-yl}-1H-pyrrole-3-carboxamide] | 8.5 | 163 |
| Cc1cccc(OC(=O)N2CCc3cc(-c4cc(C(=O)N(C)c5ccc(O)cc5)c5n4CCCC5)c(C(=O)N4Cc5ccccc5C[C@H]4CN4CCOCC4)cc3C2)c1 [Example 99, 3-Methylphenyl 6-{1-[(4-hydroxyphenyl)(methyl)carbamoyl]-5,6,7,8-tetrahydroindolizin-3-yl}-7-[(3S)-3-(morpholin-4-ylmethyl)-1,2,3,4-tetrahydroisoquinoline-2-carbonyl]-1,2,3,4-tetrahydroisoquinoline-2-carboxylate] | 5.5 | 13 |
| Cc1c(C(=O)N(C)c2ccccc2)cc(-c2cc3c(cc2C(=O)N2Cc4ccccc4C[C@H]2C)CN(C(=O)Oc2ccc4[nH]ccc4c2)CC3)n1C [Example 789, 1H-Indol-5-yl 6-{1,5-dimethyl-4-[methyl(phenyl)carbamoyl]-1H-pyrrol-2-yl}-7-[(3R)-3-methyl-1,2,3,4-tetrahydroisoquinoline-2-carbonyl]-1,2,3,4-tetrahydroisoquinoline-2-carboxylate] | 8.9 | 14 |
| Cc1c(C(=O)N(C)c2ccccc2)cc(-c2cc3c(cc2C(=O)N2Cc4ccccc4C[C@H]2C)CN(C(=O)Oc2cnc4[nH]ccc4c2)CC3)n1C [Example 636, 1H-Pyrrolo[2,3-b]pyridin-5-yl 6-{1,5-dimethyl-4-[methyl(phenyl)carbamoyl]-1H-pyrrol-2-yl}-7-[(3R)-3-methyl-1,2,3,4-tetrahydroisoquinoline-2-carbonyl]-1,2,3,4-tetrahydroisoquinoline-2-carboxylate] | 11 | 34 |
| Cc1ccc(OC(=O)N2CCc3cc(-c4cc(C(=O)N(C)c5ccc(O)cc5)c5n4CCCC5)c(C(=O)N4Cc5ccccc5C[C@H]4CN4CCOCC4)cc3C2)cc1 [Example 98, 4-Methylphenyl 6-{1-[(4-hydroxyphenyl)(methyl)carbamoyl]-5,6,7,8-tetrahydroindolizin-3-yl}-7-[(3S)-3-(morpholin-4-ylmethyl)-1,2,3,4-tetrahydroisoquinoline-2-carbonyl]-1,2,3,4-tetrahydroisoquinoline-2-carboxylate hydrochloride] | 3.8 | 1.8 |
| COc1ccc(OC(=O)N2CCc3cc(-c4cc(C(=O)N(C)c5ccc(O)cc5)c5n4CCCC5)c(C(=O)N4Cc5ccccc5C[C@H]4CN4CCOCC4)cc3C2)cc1 [Example 121, 4-Methoxyphenyl 6-{1-[(4-hydroxyphenyl)(methyl)carbamoyl]-5,6,7,8-tetrahydroindolizin-3-yl}-7-[(3S)-3-(morpholin-4-ylmethyl)-1,2,3,4-tetrahydroisoquinoline-2-carbonyl]-1,2,3,4-tetrahydroisoquinoline-2-carboxylate] | 2.9 | 2.8 |
| CC(=O)N(C)c1ccc(OC(=O)N2CCc3cc(-c4cc(C(=O)N(C)c5ccc(O)cc5)c(C)n4C)c(C(=O)N4Cc5ccccc5C[C@H]4CN4CCOCC4)cc3C2)cc1 [Example 803, 4-(N-Methylacetamido)phenyl 6-{4-[(4-hydroxyphenyl)(methyl)carbamoyl]-1,5-dimethyl-1H-pyrrol-2-yl}-7-[(3S)-3-(morpholin-4-ylmethyl)-1,2,3,4-tetrahydroisoquinoline-2-carbonyl]-1,2,3,4-tetrahydroisoquinoline-2-carboxylate] | 4.6 | 37 |
| Cc1c(C(=O)N(C)c2ccc(O)cc2)cc(-c2cc3c(cc2C(=O)N2Cc4ccccc4C[C@H]2C)CN(C(=O)Oc2ccccc2OCCN(C)C)CC3)n1C [Example 392, 2-[2-(Dimethylamino)ethoxy]phenyl 6-{4-[(4-hydroxyphenyl) (methyl)carbamoyl]-1,5-dimethyl-1H-pyrrol-2-yl}-7-[(3R)-3-methyl-1,2,3,4-tetrahydroisoquinoline-2-carbonyl]-1,2,3,4-tetrahydroisoquinoline-2-carboxylate] | 2 | 14 |
| CN(C(=O)c1cc(-c2cc3c(cc2C(=O)N2Cc4ccccc4C[C@H]2CN2CCOCC2)CN(C(=O)Oc2ccccc2)CC3)n2c1CCCC2)c1ccc(O)cc1 [Example 69, Phenyl 6-{1-[(4-hydroxyphenyl)(methyl)carbamoyl]-5,6,7,8-tetrahydroindolizin-3-yl}-7-[(3S)-3-(morpholin-4-ylmethyl)-1,2,3,4-tetrahydroisoquinoline-2-carbonyl]-1,2,3,4-tetrahydroisoquinoline-2-carboxylate hydrochloride] | 3.1 | 3.46 |

Second part, led by results:

| IC50 (Bcl-2 protein) [nM] | Compound | IC50 [1] [nM] |
| --- | --- | --- |
| 5.3 | Cc1c(C(=O)N(C)c2ccccc2)cc(-c2cc3c(cc2C(=O)N2Cc4ccccc4C[C@H]2CN2CCOCC2)CN(C(=O)Cc2ccc(C#N)cc2)CC3)n1C [Example 151, 5-{2-[2-(4-Cyanophenyl)acetyl]-7-[(3S)-3-(morpholin-4-ylmethyl)-1,2,3,4-tetrahydroisoquinoline-2-carbonyl]-1,2,3,4-tetrahydroisoquinolin-6-yl}-N,1,2-trimethyl-N-phenyl-1H-pyrrole-3-carboxamide] | 19 |
| 4.9 | C[C@@H]1Cc2ccccc2CN1C(=O)c1cc2c(cc1-c1cc(C(=O)N(C)c3ccc(O)cc3)c3n1CCCC3)CCN(C(=O)N1CC(c3ccccc3)C1)C2 [Example 84, N-(4-Hydroxyphenyl)-N-methyl-3-{7-[(3R)-3-methyl-1,2,3,4-tetrahydroisoquinoline-2-carbonyl]-2-(3-phenylazetidine-1-carbonyl)-1,2,3,4-tetrahydroisoquinolin-6-yl}-5,6,7,8-tetrahydroindolizine-1-carboxamide] | 33 |
| 4.3 | C[C@@H]1Cc2ccccc2CN1C(=O)c1cc2c(cc1-c1cc(C(=O)N(C)c3ccc(O)cc3)c3n1CCCC3)CCN(C(=O)NCc1ccccc1)C2 [Example 73, N-Benzyl-6-{1-[(4-hydroxyphenyl)(methyl)carbamoyl]-5,6,7,8-tetrahydroindolizin-3-yl}-7-[(3R)-3-methyl-1,2,3,4-tetrahydroisoquinoline-2-carbonyl]-1,2,3,4-tetrahydroisoquinoline-2-carboxamide] | 36 |
| 3.4 | Cc1c(C(=O)N(C)c2ccc(O)cc2)cc(-c2cc3c(cc2C(=O)N2Cc4ccccc4C[C@H]2C)CN(C(=O)Cc2ccc4c(c2)OCO4)C3)n1C [Example 172, 5-{2-[2-(2H-1,3-Benzodioxol-5-yl)acetyl]-6-[(3R)-3-methyl-1,2,3,4-tetrahydroisoquinoline-2-carbonyl]-2,3-dihydro-1H-isoindol-5-yl}-N-(4-hydroxyphenyl)-N,1,2-trimethyl-1H-pyrrole-3-carboxamide] | 28 |
| 3.9 | Cc1c(C(=O)N(C)c2ccc(O)cc2)cc(-c2cc3c(cc2C(=O)N2Cc4ccccc4C[C@H]2CCN2CCOCC2)CN(C(=O)OC2CCCCC2)CC3)n1C [Example 807, Cyclohexyl 6-{4-[(4-hydroxyphenyl)(methyl)carbamoyl]-1,5-dimethyl-1H-pyrrol-2-yl}-7-[(3S)-3-[2-(morpholin-4-yl)ethyl]-1,2,3,4-tetrahydroisoquinoline-2-carbonyl]-1,2,3,4-tetrahydroisoquinoline-2-carboxylate] | 26 |
| 3.3 | C[C@@H]1Cc2ccccc2CN1C(=O)c1cc2c(cc1-c1cc(C(=O)N(C)c3ccc(O)cc3)c3n1CCCC3)CCN(C(=O)Cc1ccc(CN3CCOCC3)cc1)C2 [Example 129, N-(4-Hydroxyphenyl)-N-methyl-3-{7-[(3R)-3-methyl-1,2,3,4-tetrahydroisoquinoline-2-carbonyl]-2-{2-[4-(morpholin-4-ylmethyl)phenyl]acetyl}-1,2,3,4-tetrahydroisoquinolin-6-yl}-5,6,7,8-tetrahydroindolizine-1-carboxamide] | 39 |
| 6.2 | Cc1c(C(=O)N(C)c2ccc(O)cc2)cc(-c2cc3c(cc2C(=O)N2Cc4ccccc4C[C@H]2CN2CCOCC2)CN(C(=O)OC2CCCC2)CC3)n1C [Example 796, Cyclopentyl 6-{4-[(4-hydroxyphenyl)(methyl)carbamoyl]-1,5-dimethyl-1H-pyrrol-2-yl}-7-[(3S)-3-(morpholin-4-ylmethyl)-1,2,3,4-tetrahydroisoquinoline-2-carbonyl]-1,2,3,4-tetrahydroisoquinoline-2-carboxylate] | 48 |
| 3.1 | Cc1c(C(=O)N(C)c2ccc(O)cc2)cc(-c2cc3c(cc2C(=O)N2Cc4ccccc4C[C@H]2CN2CCN(C)CC2)CN(C(=O)Cc2ccccc2)CC3)n1C [Example 778, N-(4-Hydroxyphenyl)-N,1,2-trimethyl-5-{7-[(3S)-3-[(4-methylpiperazin-1-yl)methyl]-1,2,3,4-tetrahydroisoquinoline-2-carbonyl]-2-(2-phenylacetyl)-1,2,3,4-tetrahydroisoquinolin-6-yl}-1H-pyrrole-3-carboxamide] | 52 |
| 12 | C[C@@H]1Cc2ccccc2CN1C(=O)c1cc2c(cc1-c1cc(C(=O)N(C)c3ccc(O)cc3)c3n1CCCC3)CCN(C(=O)CCc1ccc(NCCN(C)C)cc1)C2 [Example 138, 3-{2-[3-(4-{[2-(Dimethylamino)ethyl]amino}phenyl)propanoyl]-7-[(3R)-3-methyl-1,2,3,4-tetrahydroisoquinoline-2-carbonyl]-1,2,3,4-tetrahydroisoquinolin-6-yl}-N-(4-hydroxyphenyl)-N-methyl-5,6,7,8-tetrahydroindolizine-1-carboxamide] | 114 |
